System: 217524-143-R1-J4-PDC spheroids with HUVEC/MSC, viability
Assay: Anticancer human tumor 217524-143-R1-J4-PDC patient-derived pancreatic carcinoma cell line growth inhibition [CLK]
Conditions: for IC50: curve of first compound; for viability, T/C: stronger effect = lower value; active = viability on the fitted dose curve at most 10% of control; inactive = the rest
Summary of the method: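 Patient-derived tumor cells grown as complex spheroids with HUVEC endothelial cells and mesenchymal stem cells, treated with drug combinations. Concentrations descend in half-log steps from near clinical Cmax, or from 10 microM if Cmax unknown.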

[1] = second compound 0.0316 µM, first compound 0.0316 µM
[2] = second compound 0.0316 µM, first compound 0.1 µM
[3] = second compound 0.0316 µM, first compound 0.316 µM
[4] = second compound 0.0316 µM, first compound 1 µM
[5] = second compound 0.0316 µM, first compound 3.16 µM
[6] = second compound 0.0316 µM, first compound 10 µM
[7] = second compound 0.1 µM, first compound 0.0316 µM
[8] = second compound 0.1 µM, first compound 0.1 µM
[9] = second compound 0.1 µM, first compound 0.316 µM
[10] = second compound 0.1 µM, first compound 1 µM
[11] = second compound 0.1 µM, first compound 3.16 µM
[12] = second compound 0.1 µM, first compound 10 µM
[13] = second compound 0.316 µM, first compound 0.0316 µM
[14] = second compound 0.316 µM, first compound 0.1 µM
[15] = second compound 0.316 µM, first compound 0.316 µM
[16] = second compound 0.316 µM, first compound 1 µM
[17] = second compound 0.316 µM, first compound 3.16 µM
[18] = second compound 0.316 µM, first compound 10 µM
[19] = second compound 1 µM, first compound 0.0316 µM
[20] = second compound 1 µM, first compound 0.1 µM
[21] = second compound 1 µM, first compound 0.316 µM
[22] = second compound 1 µM, first compound 1 µM
[23] = second compound 1 µM, first compound 3.16 µM
[24] = second compound 1 µM, first compound 10 µM
[25] = second compound 3.16 µM, first compound 0.0316 µM
[26] = second compound 3.16 µM, first compound 0.1 µM
[27] = second compound 3.16 µM, first compound 0.316 µM
[28] = second compound 3.16 µM, first compound 1 µM
[29] = second compound 3.16 µM, first compound 3.16 µM
[30] = second compound 3.16 µM, first compound 10 µM
[31] = second compound 10 µM, first compound 0.0316 µM
[32] = second compound 10 µM, first compound 0.1 µM
[33] = second compound 10 µM, first compound 0.316 µM
[34] = second compound 10 µM, first compound 1 µM
[35] = second compound 10 µM, first compound 3.16 µM
[36] = second compound 10 µM, first compound 10 µM
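Also: spheroids exposed to agents for seven days before reading.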
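For viability, T/C in this document: 100% = DMSO vehicle control viability.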

COc1ccc([C@@H](O)c2cc(-c3ncnc4cc(N5CCOCC5)ccc34)c(F)cc2Cl)nn1 + CN1CCN(c2cc(C(=O)Nc3cc4cc(-c5cnn(C)c5)ccc4cn3)ccn2)CC1
285 nM: IC50 (second compound 0.0316 µM)
inactive: viability, T/C [1] 70.4% | viability, T/C [2] 59.8% | viability, T/C [3] 46.9% | viability, T/C [4] 38.5% | viability, T/C [5] 26.1% | viability, T/C [6] 10.6% | viability, T/C [7] 39.6% | viability, T/C [8] 50.7% | viability, T/C [9] 29.8% | viability, T/C [10] 24.4% | viability, T/C [11] 16.2% | viability, T/C [12] 10% | viability, T/C [13] 18.1% | viability, T/C [14] 18.4% | viability, T/C [15] 15% | viability, T/C [16] 13.4%
< 31.6 nM: IC50 (second compound 0.1 µM) | IC50 (second compound 0.316 µM) | IC50 (second compound 1 µM) | IC50 (second compound 3.16 µM) | IC50 (second compound 10 µM)
active: viability, T/C [17] 10.7% | viability, T/C [18] 6.07% | viability, T/C [19] 1.28% | viability, T/C [20] 0.91% | viability, T/C [21] 1.1% | viability, T/C [22] 0.93% | viability, T/C [23] 0.91% | viability, T/C [24] 0.91% | viability, T/C [25] 0.52% | viability, T/C [26] 0.54% | viability, T/C [27] 0.73% | viability, T/C [28] 0.44% | viability, T/C [29] 1.02% | viability, T/C [30] 1.29% | viability, T/C [31] 0.08% | viability, T/C [32] 0.12% | viability, T/C [33] 0.21% | viability, T/C [34] 0.18% | viability, T/C [35] 0.22% | viability, T/C [36] 0.36%

COc1cccc2c1C(=O)c1c(O)c3c(c(O)c1C2=O)CC(O)(C(=O)CO)CC3OC1CC(N)C(O)C(C)O1 (stereo unspecified) + CN1CCN(c2cc(C(=O)Nc3cc4cc(-c5cnn(C)c5)ccc4cn3)ccn2)CC1
< 31.6 nM: IC50 (second compound 0.0316 µM) | IC50 (second compound 0.1 µM) | IC50 (second compound 0.316 µM) | IC50 (second compound 1 µM) | IC50 (second compound 3.16 µM) | IC50 (second compound 10 µM)
active: viability, T/C [5] 3.21% | viability, T/C [6] 1.12% | viability, T/C [10] 11.9% | viability, T/C [11] 2.23% | viability, T/C [12] 1.21% | viability, T/C [15] 6.94% | viability, T/C [16] 3.93% | viability, T/C [17] 1.19% | viability, T/C [18] 1.44% | viability, T/C [19] 0.79% | viability, T/C [20] 1.09% | viability, T/C [21] 0.55% | viability, T/C [22] 0.99% | viability, T/C [23] 1.55% | viability, T/C [24] 2.46% | viability, T/C [25] 0.79% | viability, T/C [26] 0.89% | viability, T/C [27] 0.61% | viability, T/C [28] 0.96% | viability, T/C [29] 1.17% | viability, T/C [30] 0.55% | viability, T/C [31] 0.18% | viability, T/C [32] 0.12% | viability, T/C [33] 0.13% | viability, T/C [34] 0.13% | viability, T/C [35] 0.11% | viability, T/C [36] 0.12%
inactive: viability, T/C [1] 31.5% | viability, T/C [2] 22.6% | viability, T/C [3] 18.3% | viability, T/C [4] 12.8% | viability, T/C [7] 23.1% | viability, T/C [8] 19.4% | viability, T/C [9] 13.4% | viability, T/C [13] 15.5% | viability, T/C [14] 11.4%

CCCS(=O)(=O)Nc1ccc(F)c(C(=O)c2c[nH]c3ncc(-c4ccc(Cl)cc4)cc23)c1F + CNC(=O)c1ccc(Nc2nc(OC3CCCC3)c3c(-c4ccc5nc(C)oc5c4)c[nH]c3n2)c(OC)c1
> 10000 nM: IC50 (second compound 0.0316 µM)
inactive: viability, T/C [1] 76.2% | viability, T/C [2] 83% | viability, T/C [3] 99.1% | viability, T/C [4] 130% | viability, T/C [5] 139% | viability, T/C [6] 57.1% | viability, T/C [7] 40.1% | viability, T/C [8] 49.2% | viability, T/C [9] 49.9% | viability, T/C [10] 67.3% | viability, T/C [11] 76.6% | viability, T/C [12] 40.1% | viability, T/C [13] 41.5% | viability, T/C [14] 38.8% | viability, T/C [15] 45.6% | viability, T/C [16] 58.1% | viability, T/C [17] 59.2% | viability, T/C [18] 31.2% | viability, T/C [19] 35.1% | viability, T/C [20] 35.1% | viability, T/C [21] 46.9% | viability, T/C [22] 45% | viability, T/C [23] 49.3% | viability, T/C [24] 24.1% | viability, T/C [25] 32.1% | viability, T/C [26] 31.6% | viability, T/C [27] 34.6% | viability, T/C [28] 47.6% | viability, T/C [29] 42.1% | viability, T/C [30] 17.6% | viability, T/C [31] 29.6% | viability, T/C [32] 26.5% | viability, T/C [33] 38.7% | viability, T/C [34] 34.9% | viability, T/C [35] 42% | viability, T/C [36] 18%
< 31.6 nM: IC50 (second compound 0.1 µM) | IC50 (second compound 0.316 µM) | IC50 (second compound 1 µM) | IC50 (second compound 3.16 µM) | IC50 (second compound 10 µM)

Reference: PubChem BioAssay AID2060624 (Molecular Pharmacology Branch, DTP, NCI, 2025)
